Laboratory results reported in PubChem BioAssay (NCI).
Several values for one entry are separate records, joined by “and”; a condition that tells them apart may be missing. Identical values can stand only once.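 Cultured in 96-well plates, cells were exposed to test compound for 48 hours across five concentrations. GI50: concentration for 50% inhibition of growth. TGI: total growth inhibition.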

How the values were obtained:
Assay in all cases: growth of human tumour cells (NCI), 48 h
OVCAR-5 ovarian = system: OVCAR-5 ovarian
OVCAR-8 ovarian = system: OVCAR-8 ovarian
CAKI-1 renal = system: CAKI-1 renal
SF-295 CNS = system: SF-295 CNS
HOP-92 NSCLC = system: HOP-92 NSCLC
K-562 leukemia = system: K-562 leukemia
SNB-75 CNS = system: SNB-75 CNS
TK-10 renal = system: TK-10 renal
NCI/ADR-RES ovarian = system: NCI/ADR-RES ovarian
BT-549 breast = system: BT-549 breast

Structure (SMILES) | GI50 (OVCAR-5 ovarian) [µM] | TGI (OVCAR-5 ovarian) [µM] | GI50 (OVCAR-8 ovarian) [µM] | TGI (OVCAR-8 ovarian) [µM] | GI50 (CAKI-1 renal) [µM] | TGI (CAKI-1 renal) [µM] | GI50 (SF-295 CNS) | TGI (SF-295 CNS) [µM] | GI50 (HOP-92 NSCLC) | TGI (HOP-92 NSCLC) | GI50 (K-562 leukemia) [µM] | TGI (K-562 leukemia) [µM] | GI50 (SNB-75 CNS) [µM] | TGI (SNB-75 CNS) [µM] | GI50 (TK-10 renal) | TGI (TK-10 renal) [µM] | GI50 (NCI/ADR-RES ovarian) | TGI (NCI/ADR-RES ovarian) [µM] | GI50 (BT-549 breast) [µM] | TGI (BT-549 breast) [µM]
CC(=O)[CH-]C(C)=O.CC(=O)[CH-]C(C)=O.[CH2-]CCC.[CH2-]CCC.[Sn+4] | 1.82 | 3.22 | 0.788 | 2.05 | 0.151 | 0.874 | 1.45 µM | 2.8 | 0.256 µM | 1.25 µM | 0.283 | > 100 | 0.509 | 1.79 | 0.423 µM | 1.36 | – | – | – | –
COc1cccc(-c2nc3sccn3c2-c2ccnc(NCCCNS(=O)(=O)c3cccc(F)c3)c2)c1 | 4.41 | > 100 | 2.42 | 18.9 | – | – | 2.37 µM | 7.48 | 1.52 µM | > 100 µM | 1.77 | > 100 | 1.73 | 5.47 | 3.8 µM | 31.9 | 2.09 µM | 6.41 | 2.39 | 7.05
[Cl-].[O-]/N=C(\c1ccccc1)c1ccccn1.[O-]/N=C(\c1ccccc1)c1ccccn1.[O-]/N=C(\c1ccccc1)c1ccccn1.[Sm+3] | 53.9 | > 100 | 29.8 | > 100 | 27.1 | 89.5 | 18.7 µM | 79.9 | 23.6 µM | 87.8 µM | 32.6 | > 100 | 4.49 | 31.3 | 24.5 µM | > 100 | – | – | – | –
COCCCNC(=O)C1C(=O)N(CCCOC)C(=O)/C1=N\N (stereo unspecified) | – | > 100 | – | > 100 | – | – | – | > 100 | – | > 100 µM | – | > 100 | – | > 100 | – | > 100 | – | – | – | –
COc1ccc(OC)c(/C(C)=N/NC(N)=S)c1 | – | > 100 | – | > 100 | – | > 100 | – | > 100 | – | > 100 µM | – | > 100 | – | > 100 | – | > 100 | – | – | – | –
C#Cc1cccc(N2C(=O)CCC2=O)c1 | – | 32.5 | – | 36.1 | – | 29 | – | 30.1 | – | – | – | 20.9 | – | 26.8 | – | 29.9 | – | – | – | –
CN[C@H]1C=C[C@@H]2/C=C(C)/C=C/[C@@H](C)[C@H]([C@H](C)[C@H](O)[C@@H](C)NC(C)=O)OC(=O)/C=C/C=C(C)\C=C\[C@]2(C)C1 | 10.3 | > 49 | 0.00922 | > 49 | – | – | < 0.001 µM and 0.0049 µM | – | < 0.001 µM and 0.0049 µM | 0.0661 µM and 0.0222 µM | 0.0202 | > 49 | 0.0049 | 6.08 | 0.0611 µM and 0.259 µM | > 49 | 0.44 µM and 0.347 µM | > 49 | 0.0049 | > 49
CC(C)CCC(=O)c1ccoc1 | – | > 100 | – | > 100 | – | > 100 | – | > 100 | – | > 100 µM | – | > 100 | – | > 100 | – | > 100 | – | > 100 | – | –
O=c1nc(/C=C/c2ccccc2Cl)cc2n1CCN2CCO | – | > 100 | – | > 100 | – | > 100 | – | > 100 | – | > 100 µM | – | > 100 | – | > 100 | – | > 100 | – | – | – | –
